Patent US5700799A, “Oxazolidinone antimicrobials containing substituted diazine moieties” (Pharmacia & Upjohn Company, priority 1996, dated 1997)
Values joined by “and” are separate entries in the source; they are usually repeats but may differ in a detail not shown here. Equal values may be shown once. Read-outs that look alike come from different tables or passages of the source.

Experiments:
S. aureus UC 9213 = assay: Murine Assay procedure: in vivo antimicrobial activity, survival of infected mice (S. aureus UC 9213); set-up: species or system Staphylococcus aureus (infected female mice); details: dosed 1 h and 5 h after i.p. infection, survival daily for six days; for ED50: Staphylococcus aureus, UC9213, 144 h, oral, probit
Procedure: (§1) Antimicrobial activity was tested in vivo using the Murine Assay procedure. Groups of female mice (six mice of 18-20 grams each) were injected intraperitoneally with bacteria which were thawed just prior to use and suspended in brain heart infusion with 4% brewers yeast (Staphylococcus aureus) or brain heart infusion (Streptococcus species). Antibiotic treatment at six dose levels per drug was administered one hour and five hours after affection by either oral intubation or subcutaneous routes. Survival was observed daily for six days. ED50 values based on mortality ratios were calculated using probit analysis. The subject compounds were compared against well-known antimicrobial as controls.

S. aureus UC 6685 = assay: Murine Assay procedure: in vivo antimicrobial activity, survival of infected mice (S. aureus UC 6685); set-up: species or system Staphylococcus aureus (infected female mice); details: Staphylococcus aureus
Procedure: as §1

S. aureus UC 9271 = assay: Murine Assay procedure: in vivo antimicrobial activity, survival of infected mice (S. aureus UC 9271); set-up: species or system Staphylococcus aureus (infected female mice); details: Staphylococcus aureus
Procedure: as §1

S. pyogenes UC 152 = assay: Murine Assay procedure: in vivo antimicrobial activity, survival of infected mice (S. pyogenes UC 152); set-up: species or system S. pyogenes (infected female mice); details: Streptococcus pyogenes, UC152, 144 h, oral, dosed 1 h and 5 h after i.p. infection, survival daily for six days
microbial infections = assay: treatment of microbial infections (relative activity, test not given)

Compound	ED50 (S. aureus UC 9213) [mg/kg]	also measured
CC(=O)CCC(=O)N1CCN(c2ccc(N3CC(CNC(C)=O)OC3=O)cc2F)CC1 (racemic) [Example 10, (±)-N-[[3-[4-[4-(1,4-Dioxopentyl)-1-piperazinyl]-3-fluorophenyl]-2-oxo-5-oxazolidinyl]methyl)Acetamide]	9.4	–
O=C(O)c1cn(C2CC2)c2cc(N3CCNCC3)c(F)cc2c1=O [Ciprofloxacin, reference compound]	–	ED50 (S. aureus UC 6685; UC6685, sc, 144 h, read-out: Control, ED50, SC): 6.6 mg/kg
COC(=O)N1CCN(c2ccc(N3CC(CNC(C)=O)OC3=O)cc2F)CC1 (stereo not shown) [Example 1, 4-(4-(5-((Acetylamino)methyl)-2-oxo-3-oxazolidinyl)-2-fluorophenyl)-1-piperazinecarboxylic acid, methyl ester]	3.8	ED50 (S. aureus UC 9271; UC9271, 144 h, S. aureus UC 9271, oral, dosed 1 h and 5 h after i.p. infection, survival daily for six days, read-out: ED50, PO): 4 mg/kg; ED50 (S. pyogenes UC 152): 2.3 mg/kg; ED50 (S. aureus UC 6685; UC6685, 144 h, S. aureus UC 6685, oral, dosed 1 h and 5 h after i.p. infection, survival daily for six days, read-out: ED50, PO): 4 mg/kg; activity relative to the Formula I compounds (microbial infections): most active
COC(=O)N1CCN(c2ccc(N3CC(CNC(C)=O)OC3=O)cc2)CC1 (stereo not shown) [Example 3, 4-(4-(5-((Acetylamino)methyl)-2-oxo-3-oxazolidinyl)phenyl)-1-piperazinecarboxylic acid, methyl ester]	10.4	–
CC(=O)NCC1CN(c2ccc(N3CCN(CCC#N)CC3)c(F)c2)C(=O)O1 (stereo not shown) [Example 5, N-((3-(4-(3-Fluoro-4-(4-(2-Cyanoethyl)-1-piperazinyl))phenyl)-2-oxo-5-oxazolidinyl)methyl)-acetamide]	10	–
CC(=O)NCC1CN(c2ccc(N3CCN(C(=O)OCCO)CC3)c(F)c2)C(=O)O1 (stereo not shown) [Example 6, 4-(4-(5-((acetylamino)methyl)-2-oxo-3-oxazolidinyl)-2-fluorophenyl)-1-piperazinecarboxylic acid, 2-hydroxyethyl ester]	12	–
CC(=O)NCC1CN(c2ccc(N3CCN(C(=O)c4ccccc4)CC3)c(F)c2)C(=O)O1 (stereo not shown) [Example 7, N-((3-(4-(3-Fluoro-4-((benzoyl)-1-piperazinyl))phenyl)-2-oxo-5-oxazolidinyl)methyl)-acetamide]	12	–
CC(=O)NCC1CN(c2ccc(N3CCN(CC#N)CC3)c(F)c2)C(=O)O1 (stereo not shown) [Example 9]	–	activity relative to the Formula I compounds (microbial infections): most active
COCCN1CCN(c2ccc(N3C[C@H](CNC(C)=O)OC3=O)cc2F)CC1 [Example 36, (S)-N-[[3-[3-fluoro-4-[4-(2-methoxyethyl)-1-piperazinyl]phenyl]-2-oxo-5-oxazolidinyl]methyl]acetamide]	7.9	–
COCCN1CCN(c2c(F)cc(N3C[C@H](CNC(C)=O)OC3=O)cc2F)CC1 [Example 37, (S)-N-[[3-[3,5-difluoro-4-[4-(2-methoxyethyl)-1-piperazinyl]phenyl]-2-oxo-5-oxazolidinyl]methyl]acetamide]	12.6	–
CN[C@H](CC(C)C)C(=O)N[C@H]1C(=O)N[C@@H](CC(N)=O)C(=O)N[C@H]2C(=O)N[C@H]3C(=O)N[C@H](C(=O)N[C@H](C(=O)O)c4cc(O)cc(O)c4-c4cc3ccc4O)[C@H](O)c3ccc(c(Cl)c3)Oc3cc2cc(c3O[C@@H]2O[C@H](CO)[C@@H](O)[C@H](O)[C@H]2O[C@H]2C[C@](C)(N)[C@H](O)[C@H](C)O2)Oc2ccc(cc2Cl)[C@H]1O [Vancomycin, reference compound]	–	ED50 (S. aureus UC 9271; UC9271, sc, 144 h, read-out: Control, ED50, SC): 5.9 mg/kg; Control, ED50, SC (S. aureus UC 9213; control antibiotic, subcutaneous, 8640 min): 1.8 mg/kg and 1.9 mg/kg
